Measured values as given in patent US12618112B2, “Epigenetic moderators of naltrexone efficacy in reducing heavy drinking in individuals diagnosed with alcohol use disorder” (MUSC Foundation for Research Development, priority 2021, dated 2026).

Assays:
[1] = system: treatment-seeking AUD patients; assay: 16-week randomized, placebo-controlled naltrexone trial; percent heavy drinking days (PHDD) by promoter/VNTR methylation subgroup; format: in vivo, human; conditions: for effect of naltrexone, relative to placebo, on PHDD: 16-week trial
From the text: Overview. Detailed methods for the parent RCT, including a CONSORT diagram, are described in Anton et al, 2020 and Schacht et al, 2017. The Medical University of South Carolina Institutional Review Board approved all procedures, and all participants provided informed consent before participation. The study consisted of an initial assessment session, a baseline visit, and 9 follow-up visits over the course of a 16-week treatment period. Briefly, participants seeking AUD treatment were recruited from the community with media advertisements, assessed for inclusion/exclusion criteria, and genotyped for rs1799971. One of the aims of the parent RCT was to test the effect of rs1799971 genotype on naltrexone efficacy, so participants who carried the minor (G) allele were over-selected, such that these individuals ultimately comprised ˜50% of the 146 participants randomized to medication.
Participants. Participants were required to be ages 18-70; report heavy drinking (at least five/four standard drinks per day for men/women) on at least 50% of the days in the 90 days before assessment; and meet DSM-IV (Diagnostic and Statistical Manual of Mental Disorders, revised 4th edition) diagnostic criteria for Alcohol Dependence, as assessed by the Structured Clinical Interview for DSM-IV (First et al, 2002). Participants were also required to self-identify as Caucasian or Asian, secondary to low rs1799971 G-allele frequency among individuals of African descent; we previously reported that analysis of population allele frequencies for 50 SNPs included on the methylation assay used here indicated a high degree of correspondence between self-reported and SNP-identified ancestry. […] Exclusion criteria were: current psychotropic medication use other than antidepressants (for which a stable dose for at least one month was required); current DSM-IV Axis I diagnosis or suicidal/homicidal ideation; history of significant medical illness; liver enzyme (ALT or AST) levels>three times normal; and past-month naltrexone, disulfiram, or acamprosate use. Female participants could not be pregnant or nursing. The Table below lists demographic characteristics for the sample. Medication, randomization, and assessment. Participants were required to maintain abstinence for at least four days before medication randomization, and were then urn randomized (Stout et al, 1994) to receive naltrexone (25 mg for two days, then 50 mg thereafter) or placebo for 16 weeks. Randomization was stratified by rs1799971 genotype, with sex, smoking status (non-smoker vs. smoker, defined as ≥10 cigarettes per day), cocaine use, antidepressant use, and AUD family history balanced across medication groups. […] Participants and investigators were blind to genotype and medication assignment. After randomization, participants returned at weeks 1, 2, 3, 4, 6, 8, 10, 12, and 16 for medical management sessions, during which daily drinking since the last visit was assessed with the calendar-based Timeline Follow-back interview (Sobell and Sobell, 1992). Participants who dropped out after randomization were compensated to return at week 16 to provide missing drinking data. Forty participants ultimately dropped out, at similar rates across medication groups, but full drinking data were available on 89% of participants.
Methylation assay. Genomic DNA was quantitated using a Qubit Fluorometer (Thermo Fisher Scientific, Waltham, MA). An Infinium MethylationEPIC BeadChip (Illumina, San Diego, CA), which assays methylation at 866,895 cytosine residues, 99.7% of which are CpG sites, was used to generate a comprehensive genome-wide profile of DNA methylation. For each subject, 500 ng genomic DNA was bisulfate converted, denatured, and amplified, fragmented, resuspended, and hybridized to the BeadChips (eight samples per chip). […]

[2] = system: individuals with Alcohol Use Disorder; conditions: cited from earlier work
[3] = month 3, high SLC6A3 promoter and low OPRM1 promoter methylation

SMILES: O=C1CC[C@@]2(O)[C@H]3Cc4ccc(O)c5c4[C@@]2(CCN3CC2CC2)[C@H]1O5 [naltrexone]
- effect size (Cohen's d) for PHDD, naltrexone relative to placebo ([1]; across all study months, lower COMT promoter and lower OPRM1 promoter methylation): 0.85
- mean difference between naltrexone and placebo in PHDD ([1]; across all study months, lower COMT promoter and lower OPRM1 promoter methylation (median split)): 19.7 % HDD
- effect size (Cohen's d) for PHDD, naltrexone relative to placebo ([1]; across all study months, lower SLC6A3 VNTR and lower OPRM1 promoter methylation): 1.25
- mean difference between naltrexone and placebo in PHDD ([1]; across all study months, lower SLC6A3 VNTR and lower OPRM1 promoter methylation (median split)): 28.5 % HDD
- simple effect of medication on PHDD ([1]; any time point, any other combination of SLC6A3 and OPRM1 promoter methylation (except high SLC6A3/low OPRM1)): not significant
- heavy drinking days ([1]; lower methylation of OPRM1 and SLC6A3 or COMT promoters, relative to placebo and to higher methylation): significantly fewer heavy drinking days
- effect size (Cohen's d) for PHDD, naltrexone relative to placebo ([1]; month 2, lower SLC6A3 promoter and lower OPRM1 promoter methylation): 0.61
- mean difference between naltrexone and placebo in PHDD ([1]; month 2, lower SLC6A3 promoter and lower OPRM1 promoter methylation (median split), naltrexone 50 mg): 16.2 % HDD
- effect size (Cohen's d) for PHDD, naltrexone relative to placebo [1, 3]: 0.98
- mean difference between naltrexone and placebo in PHDD [1, 3]: 25.7 % HDD
- effect size (Cohen's d) for PHDD, naltrexone relative to placebo ([1]; month 3, lower SLC6A3 promoter and lower OPRM1 promoter methylation): 0.62
- mean difference between naltrexone and placebo in PHDD ([1]; month 3, lower SLC6A3 promoter and lower OPRM1 promoter methylation (median split)): 16.5 % HDD
- effect of naltrexone, relative to placebo, on PHDD ([1]; participants with lower COMT promoter and OPRM1 promoter methylation): reduced PHDD more
- effect of naltrexone, relative to placebo, on PHDD ([1]; participants with lower SLC6A3 VNTR and OPRM1 promoter methylation): reduced PHDD more
- effect of naltrexone, relative to placebo, on PHDD ([1]; participants with lower SLC6A3 promoter and OPRM1 promoter methylation): reduced PHDD more
- effect sizes for naltrexone, relative to placebo, on heavy drinking ([1]; subgroups in which it was most effective): 0.53-1.04
- overall effect of naltrexone on heavy drinking ([2]; across all AUD individuals (Maisel et al, 2013)): small
- effect on heavy drinking ([2]; individuals with AUD (Jonas et al., 2014a)): reduces heavy drinking
